Test results: BigSolDB 2.1

**Q.** What does the source list for `c1ccc2c(c1)Cc1ccccc1-2`?
**A.** solubility (mole fraction) (in ethanol, 278.98 K): 0.00372; solubility (mole fraction) (in ethanol, 283.99 K): 0.00455; solubility (mole fraction) (in ethanol, 289.01 K): 0.00554; solubility (mole fraction) (in ethanol, 294.08 K): 0.00668; solubility (mole fraction) (in ethanol, 298.35 K): 0.00802; solubility (mole fraction) (in ethanol, 303.36 K): 0.00973; solubility (mole fraction) (in ethanol, 308.77 K): 0.0118; solubility (mole fraction) (in ethanol, 313.17 K): 0.0139; solubility (mole fraction) (in ethanol, 319.27 K): 0.0177; solubility (mole fraction) (in ethanol, 324.95 K): 0.0216; solubility (mole fraction) (in isopropanol, 288.28 K): 0.00221; solubility (mole fraction) (in isopropanol, 293.69 K): 0.00313; solubility (mole fraction) (in isopropanol, 299.5 K): 0.00453; solubility (mole fraction) (in isopropanol, 303.17 K): 0.00565; solubility (mole fraction) (in isopropanol, 309.06 K): 0.00802; solubility (mole fraction) (in isopropanol, 313.78 K): 0.0105; solubility (mole fraction) (in isopropanol, 318.24 K): 0.0135; solubility (mole fraction) (in isopropanol, 323.17 K): 0.0179; solubility (mole fraction) (in isopropanol, 328.25 K): 0.0237; solubility (mole fraction) (in isopropanol, 333.45 K): 0.0314; solubility (mole fraction) (in n-butanol, 284.27 K): 0.0059; solubility (mole fraction) (in n-butanol, 288.82 K): 0.00724; solubility (mole fraction) (in n-butanol, 293.76 K): 0.00906; solubility (mole fraction) (in n-butanol, 298.88 K): 0.0113; solubility (mole fraction) (in n-butanol, 304.06 K): 0.0139; solubility (mole fraction) (in n-butanol, 308.28 K): 0.0168; solubility (mole fraction) (in n-butanol, 313.93 K): 0.0212; solubility (mole fraction) (in n-butanol, 318.16 K): 0.0251; solubility (mole fraction) (in n-butanol, 323.16 K): 0.0304; solubility (mole fraction) (in n-butanol, 328.25 K): 0.037; solubility (mole fraction) (in n-butanol, 333.35 K): 0.0458; solubility (mole fraction) (in n-butanol, 338.35 K): 0.0558; solubility (mole fraction) (in toluene, 283.27 K): 0.0634; solubility (mole fraction) (in toluene, 288.77 K): 0.0819; solubility (mole fraction) (in toluene, 293.72 K): 0.102; solubility (mole fraction) (in toluene, 298.89 K): 0.13; solubility (mole fraction) (in toluene, 303.17 K): 0.154; solubility (mole fraction) (in toluene, 308.81 K): 0.201; solubility (mole fraction) (in toluene, 314.04 K): 0.252; solubility (mole fraction) (in toluene, 319.01 K): 0.308; solubility (mole fraction) (in toluene, 323.28 K): 0.367
